In brackets after ≈: the same amount, converted by molar mass.
Columns and labels:
K562 = assay: Cytotoxicity against human K562 cells by spectrophotometric analysis; format: functional, cell-based
P388 = assay: Cytotoxicity against mouse P388 cells; format: functional; conditions: read-out: ED50 (the source's name)

SMILES | IC50 (K562) [µM] | EC50 (P388) [µg/mL]
COc1cccc2c1C(=O)c1c(O)c3c(c(O)c1C2=O)C[C@@](O)(C(=O)CO)C[C@@H]3O[C@H]1C[C@H](N)[C@H](O)[C@H](C)O1 [DOXORUBICIN] | 13.6 | 
CC(=O)O[C@@]1(C)CC[C@H](O)C(C)(C)[C@@H]1CC/C(C)=C/C[C@@H](O)/C=C(\C)[C@@H](O)C[C@@H]1C(C)=CCC(=O)C1(C)C [POUOGENIN A] | 14.8 | 
CC(=O)O[C@@H](C[C@@H]1C(C)=CCC(=O)C1(C)C)/C(C)=C/[C@@H](C/C=C(\C)CC[C@H]1C(C)(C)[C@@H](O)CC[C@]1(C)OC(C)=O)OC(C)=O [POUOGENIN B] | 38.9 | 
CC(=O)O[C@@H](C[C@@H]1C(C)=CCC(=O)C1(C)C)/C(C)=C/[C@H](O)C/C=C(\C)CC[C@H]1C(C)(C)[C@@H](O)CC[C@]1(C)OC(C)=O [POUOGENIN C] | 14.6 | 
CC(=O)O[C@@H](C[C@H]1C(C)(C)C(=O)C=C[C@]1(C)O)/C(C)=C/[C@H](O)C/C=C(\C)CC[C@H]1C(C)(C)[C@@H](O)CC[C@]1(C)OC(C)=O [POUOGENIN D] | 27.5 | 
CC(=O)O[C@@]1(C)CC[C@H](O)C(C)(C)[C@@H]1CC/C(C)=C/C[C@@H](O)/C=C(\C)C(=O)C[C@H]1C(C)(C)C(=O)C=C[C@]1(C)O [POUOGENIN E] | 18.9 | 
CC(=O)O[C@@H](C[C@@H]1C(C)=CCC(=O)C1(C)C)/C(C)=C/[C@@H](C/C=C(\C)CC[C@H]1C(C)(C)[C@@H](O[C@@H]2O[C@H](CO)[C@H](O)[C@H](O)[C@H]2O)CC[C@]1(C)OC(C)=O)OC(C)=O [POUOSIDE A] | 17 | 1.5 (≈ 1.93 µM)
CC(=O)O[C@@H](C[C@@H]1C(C)=CCC(=O)C1(C)C)/C(C)=C/[C@H](O)C/C=C(\C)CC[C@H]1C(C)(C)[C@@H](O[C@@H]2O[C@H](CO)[C@H](O)[C@H](O)[C@H]2O)CC[C@]1(C)OC(C)=O [POUOSIDE B] | > 100 | 
CC(=O)O[C@H]1[C@H](O[C@H]2CC[C@](C)(OC(C)=O)[C@@H](CC/C(C)=C/C[C@H](/C=C(\C)[C@H](C[C@@H]3C(C)=CCC(=O)C3(C)C)OC(C)=O)OC(C)=O)C2(C)C)O[C@H](CO)[C@H](O)[C@@H]1O [POUOSIDE D] | 12.5 | 
CC(=O)O[C@@]1(C)CC[C@H](O[C@@H]2O[C@H](CO)[C@H](O)[C@H](O)[C@H]2O)C(C)(C)[C@@H]1CC/C(C)=C/C[C@@H](O)/C=C(\C)[C@@H](O)C[C@@H]1C(C)=CCC(=O)C1(C)C [POUOSIDE F] | > 100 | 
CC(=O)O[C@@H](C[C@H]1C(C)(C)C(=O)C=C[C@]1(C)O)/C(C)=C/[C@H](O)C/C=C(\C)CC[C@H]1C(C)(C)[C@@H](O[C@@H]2O[C@H](CO)[C@H](O)[C@H](O)[C@H]2O)CC[C@]1(C)OC(C)=O [POUOSIDE G] | > 100 | 
CC(=O)O[C@@]1(C)CC[C@H](O[C@@H]2O[C@H](CO)[C@H](O)[C@H](O)[C@H]2O)C(C)(C)[C@@H]1CC/C(C)=C/C[C@@H](O)/C=C(\C)C(=O)C[C@H]1C(C)(C)C(=O)C=C[C@]1(C)O [POUOSIDE H] | > 100 | 
C=C1CC[C@H](O[C@@H]2O[C@H](CO)[C@H](O)[C@H](O)[C@H]2O)C(C)(C)[C@@H]1CC/C(C)=C/C[C@H](/C=C(\C)[C@H](C[C@@H]1C(C)=CCC(=O)C1(C)C)OC(C)=O)OC(C)=O [POUOSIDE I] | > 100 | 
